Experimental data as given in patent US9447106B2, “Substituted pyrazolo[1,5-a]pyrimidines as bruton's tyrosine kinase modulators” (Beigene, Ltd., priority 2013, dated 2016).
Structures can show the parent of a compound that is named as a salt. Where two headings read alike, the source gives them in different places.

Key:
Recombinant Btk = Recombinant Btk (Homo sapiens (Human), UniProt Q06187); test: Btk kinase assay (TR-FRET)
[1] = target: phosphorylated Btk at Tyr223 in Ramos cells (Homo sapiens (Human), UniProt Q06187); test: Btk pY223 cellular assay (HTRF) in Ramos cells; format: cell-based; conditions: 1 hour compound incubation, pervanadate or Na3VO4 stimulation
Chain of phosphorylated Btk at Tyr223 in Ramos cells (Q06187 whole entry): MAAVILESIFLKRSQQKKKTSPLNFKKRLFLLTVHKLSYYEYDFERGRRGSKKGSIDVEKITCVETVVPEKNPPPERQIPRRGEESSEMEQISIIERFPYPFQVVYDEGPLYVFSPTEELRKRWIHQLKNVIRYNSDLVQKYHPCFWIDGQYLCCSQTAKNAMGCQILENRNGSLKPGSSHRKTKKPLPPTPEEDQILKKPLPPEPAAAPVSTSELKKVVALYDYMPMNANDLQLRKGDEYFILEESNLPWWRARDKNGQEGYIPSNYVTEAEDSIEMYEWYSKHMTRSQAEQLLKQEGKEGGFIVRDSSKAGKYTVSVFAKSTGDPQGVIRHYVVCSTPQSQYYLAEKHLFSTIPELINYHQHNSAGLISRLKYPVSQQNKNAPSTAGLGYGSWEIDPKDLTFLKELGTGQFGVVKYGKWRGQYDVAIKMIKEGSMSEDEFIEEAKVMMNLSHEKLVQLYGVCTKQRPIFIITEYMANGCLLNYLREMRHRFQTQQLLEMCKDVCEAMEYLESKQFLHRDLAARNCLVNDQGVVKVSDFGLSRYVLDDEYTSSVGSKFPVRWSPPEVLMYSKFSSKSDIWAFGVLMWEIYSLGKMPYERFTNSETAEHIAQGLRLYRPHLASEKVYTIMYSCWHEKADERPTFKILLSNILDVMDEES

[2] = read-out: IC50 (nM) Btk, recombinant Btk, 1 hour pre-incubation, ATP at Km

Chain of Recombinant Btk (Q06187 whole entry): as above

IC50 [1] [nM] | SMILES | other results
 | C=CC(=O)N1CC[C@H]2Nc3c(C(N)=O)c(-c4ccc(Oc5ccccc5)cc4)nn3C[C@H]2C1 [Compound 31] | IC50 (Recombinant Btk; [2]): 15 nM
4 | C=CC(=O)Nc1ccccc1C1CCNc2c(C(N)=O)c(-c3ccc(OCc4ccccn4)c(Cl)c3)nn21 (stereo not shown) [Compound 146, 7-(2-Acrylamido-phenyl)-2-(3-chloro-4-(pyridin-2-ylmethoxy)phenyl)-4,5,6,7-tetrahydropyrazolo[1,5-a]pyrimidine-3-carboxamide] | 
22.7 | C=CC(=O)Nc1ccccc1C1CCNc2c(C(N)=O)c(-c3ccc(F)c(F)c3)nn21 (stereo not shown) [Compound 137, 7-(2-acrylamidophenyl)-2-(3,4-difluorophenyl)-4,5,6,7-tetrahydropyrazolo[1,5-a]pyrimidine-3-carboxamide] | 
6.2 | C=CC(=O)N1CC(C2CCNc3c(C(N)=O)c(-c4ccc(Oc5ccc(Cl)c(Cl)c5)cc4)nn32)C1 (stereo not shown) [Compound 132, 7-(1-acryloylazetidin-3-yl)-2-(4-(3,4-dichlorophenoxy)phenyl)-4,5,6,7-tetrahydropyrazolo[1,5-a]pyrimidine-3-carboxamide] | 
7.9 | C=CC(=O)N(C)CC1CCNc2c(C(N)=O)c(-c3ccc(Oc4ccccc4)cc3)nn21 (stereo not shown) [Compound 35] | 
140 | C=CC(=O)Nc1ccc2c(c1)c(=O)[nH]c1c(C(N)=O)c(-c3ccc(Oc4ccccc4)cc3)nn12 [Compound 78, 7-Acrylamido-5-oxo-2-(4-phenoxyphenyl)-4,5-dihydropyrazolo[1,5-a]quinazoline-3-carboxamide] | 
19.1 | COc1cc(-c2nn3c(c2C(N)=O)NCCC3c2ccccc2NC(=O)/C=C/CN(C)C)ccc1C (stereo not shown) [Compound 165, (E)-7-(2-(4-(Dimethylamino)but-2-enamido)phenyl)-2-(3-methoxy-4-methylphenyl)-4,5,6,7-tetrahydropyrazolo[1,5-a]pyrimidine-3-carboxamide] | 
2.4 | C=CC(=O)N1CC(C2CCNc3c(C(N)=O)c(-c4ccc(Oc5ccccc5C#N)cc4)nn32)C1 (stereo not shown) [Compound 135, 7-(1-acryloylazetidin-3-yl)-2-(4-(2-cyanophenoxy)phenyl)-4,5,6,7-tetrahydropyrazolo[1,5-a]pyrimidine-3-carboxamide] | 
14 | C=CC(=O)N1CCCC1C1CCNc2c(C(N)=O)c(-c3ccc(Oc4ccccc4)cc3)nn21 (stereo not shown) [Compound 103, 7-(1-acryloylpyrrolidin-2-yl)-2-(4-phenoxyphenyl)-4,5,6,7-tetrahydropyrazolo-[1,5-a]pyrimidine-3-carboxamide] | 
7.6 | C=CC(=O)N1CCC(C2(C)CCNc3c(C(N)=O)c(-c4ccc(Oc5ccccc5)cc4)nn32)CC1 (stereo not shown) [Compound 138, 7-(1-acryloylpiperidin-4-yl)-7-methyl-2-(4-phenoxyphenyl)-4,5,6,7-tetrahydropyrazolo[1,5-a]pyrimidine-3-carboxamide] | 
75.8 | C=CC(=O)N1CCC2(CCNc3c(C(N)=O)c(-c4ccc(Oc5ccccc5)cc4)nn32)CC1 [Compound 43, 1-Acryloyl-2′-(4-phenoxyphenyl)-5′,6′-dihydro-4′H-spiro[piperidine-4,7′-pyrazolo[1,5-a]pyrimidine]-3′-carboxamide] | 
3.1 | C=CC(=O)N1CC(C2CCNc3c(C(N)=O)c(-c4ccc(Oc5ccccc5)c(Cl)c4)nn32)C1 (stereo not shown) [Compound 139, 7-(1-acryloylazetidin-3-yl)-2-(3-chloro-4-phenoxyphenyl)-4,5,6,7-tetrahydropyrazolo[1,5-a]pyrimidine-3-carboxamide] | 

SMILES | IC50 [1] [nM] | other results
C=CC(=O)Nc1ccc2c(c1)CCNc1c(C(N)=O)c(-c3ccc(Oc4ccccc4)cc3)nn1-2 [Compound 72, 8-Acrylamido-2-(4-phenoxyphenyl)-5,6-dihydro-4H-benzo[f]pyrazolo[1,5-a][1,3]diazepine-3-carboxamide] | 10.5 | IC50 (Recombinant Btk; IC50 (nM) Btk, recombinant Btk, 1 hour pre-incubation, ATP at Km): 4.1 nM
CN(C)C/C=C/C(=O)N1CCC(C2CCNc3c(C(N)=O)c(-c4ccc(Oc5ccccc5)cc4)nn32)CC1 (single isomer, unassigned) [Compound 171, (R or S) (E)-7-(1-(4-(Dimethylamino)but-2-enoyl)piperidin-4-yl)-2-(4-phenoxyphenyl)-4,5,6,7-tetrahydropyrazolo-[1,5-a]pyrimidine-3-carboxamide] | 10.9 | IC50 (Recombinant Btk): 1.4 nM
C=CC(=O)N1CC[C@H]2[C@H](CNc3c(C(N)=O)c(-c4ccc(Oc5ccccc5)cc4)nn32)C1 (relative stereo) [Compound 30, Cis-7-Acryloyl-2-(4-phenoxyphenyl)-4,5,5a,6,7,8,9,9a-octahydro pyrazolo[1,5-a]pyrido[3,4-e]pyrimidine-3-carboxamide and Cis-7-acryloyl-2-(4-phenoxyphenyl)-4,4a,5,6,7,8,8a,9-octahydropyrazolo[1,5-a]pyrido[4,3-d]pyrimidine-3-carboxamide] | 4 | IC50 (Recombinant Btk): 1 nM
C=CC(=O)Nc1ccccc1C1CCNc2c(C(N)=O)c(-c3ccc(OCc4ccccc4)cc3)nn21 (stereo not shown) [Compound 10, 7-(2-Acrylamidophenyl)-2-(4-(benzyloxy)phenyl)-4,5,6,7-tetrahydro pyrazolo[1,5-a]pyrimidine-3-carboxamide] | 8 | IC50 (Recombinant Btk; [2]): 1.5 nM
NC(=O)c1c(-c2ccc(Oc3ccccc3)cc2)nn2c1NCC[C@H]2C1CCN(C(=O)/C=C/CN2CCN(CCNC(=O)CCCC(=O)NCCCOCCOCCOCCCNC(=O)CCCC[C@H]3SC[C@H]4NC(=O)N[C@H]43)CC2)CC1 [Compound 178, N1-(2-(4-((E)-4-(4-((S)-3-carbamoyl-2-(4-phenoxyphenyl)-4,5,6,7-tetrahydropyrazolo[1,5-a]pyrimidin-7-yl)piperidin-1-yl)-4-oxobut-2-en-1-yl)piperazin-1-yl)ethyl)-N5-(15-oxo-19-((3aR,4R,6aS)-2-oxohexahydro-1H-thieno[3,4-d]imidazol-4-yl)-4,7,10-trioxa-14-azanonadecyl)glutaramide trifluoroacetate] | > 1000 | IC50 (Recombinant Btk): 46 nM
